Measured values taken from patent publication US11612572B2, “Treatment of schizophrenia using beta-caryophyllene and CB2 receptor agonists” (priority 2012, dated 2023).
pKi: −log10 of the molar value. “Also recorded” adds a separate entry of the source.

Experiments:
cannabinoid receptor CB2 [1] = target: T1, cannabinoid receptor CB2 (Homo sapiens, UniProt P34972); conditions: at CB2; cited from earlier work
cannabinoid receptor CB2 [2] = target: T1, cannabinoid receptor CB2; conditions: cited from earlier work
[3] = system: mouse model of schizophrenia; experiment: Open-field test (ambulation/crossing, rearing, grooming)
[4] = system: mouse model of schizophrenia; experiment: Behavior in the Phenotyper cage; type: in vivo, mice; conditions: Study II
CB1 receptor = experiment: Expression level of CB1 receptor in brain tissue; type: in vivo; conditions: PCP-treated vs control mice, 9 days old
Procedure: (§1) Expression Level of CB1 and CB2 Receptor in Mice at 9 Days Old (mRNA) or 2 Weeks Old (Protein)
(§2) Brain tissue of control mice (saline treated) and mice treated with PCP were analyzed in the left and right cortex and brain stem (FIGS. 7A-I; FIG. 8. Results from the cortex and brain stem were reported by the Inventors in 2011 (Anavi-Goffer et al).

CB2 receptor = experiment: Expression level of CB2 receptor in brain tissue; type: in vivo, mice; conditions: for mRNA expression of CB2 receptor: PCP-treated vs control mice, 9 days old
Procedure: as §1, §2

GAD67 = experiment: Expression level of GAD67 in brain tissue; type: in vivo, mice; conditions: PCP vs control; for GAD67 protein level: 2 weeks old; for GAD67 mRNA level: 9 days old
Procedure: Expression Level of GAD67 in Mice at 9 Days Old (mRNA) or 2 Weeks Old (Protein)
Brain tissue of control mice and mice treated with PCP were analyzed for GAD67, a neurochemical marker for schizophrenia (FIG. 9A-F).

MGL = experiment: Expression of MGL in brain tissue; type: in vivo; conditions: PCP vs control, 2 week old mice
From the text: Expression of MGL in 2 Week Old Mice

[5] = system: mouse model of schizophrenia; experiment: Elevated Plus Maze test; conditions: Study I, age 13 weeks
[6] = Body weight of mice in the neonatal PCP model
[7] = system: mouse model of schizophrenia; experiment: Prepulse inhibition (PPI) of the startle reflex; conditions: Study I, age 8 weeks
[8] = Study III: male mice, PND 17, PCP 5 mg/kg, 1 h later BCP 10 mg/kg or BCP+AM630 10 mg/kg each, DMSO-based vehicle

T1 sequence (P34972 whole entry): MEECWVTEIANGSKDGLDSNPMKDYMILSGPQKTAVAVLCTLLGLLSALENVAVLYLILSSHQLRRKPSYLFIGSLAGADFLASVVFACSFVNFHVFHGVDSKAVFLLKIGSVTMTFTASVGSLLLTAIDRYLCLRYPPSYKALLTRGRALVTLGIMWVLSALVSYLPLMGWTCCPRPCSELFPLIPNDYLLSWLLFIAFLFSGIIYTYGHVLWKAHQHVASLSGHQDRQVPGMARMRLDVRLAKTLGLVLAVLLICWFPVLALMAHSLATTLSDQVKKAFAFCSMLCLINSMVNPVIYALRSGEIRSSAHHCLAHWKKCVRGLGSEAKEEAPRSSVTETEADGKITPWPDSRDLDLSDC

COc1ccc(C(=O)c2c(C)n(CCN3CCOCC3)c3cc(I)ccc23)cc1 [AM630, 6-Iodopravadoline, reference compound]
pKi (cannabinoid receptor CB2 [1]): 7.49
activity at CB2 receptor (cannabinoid receptor CB2 [2]): potent and selective inverse agonist
open-field behaviors compared with PCP-treated mice ([3]; Study III: PCP+BCP+AM630 group, male mice, PND 17): not significantly different from these of PCP-treated mice
ambulation [3, 8]: reversed the effects of BCP on ambulation and rearing behaviors; also recorded: reversed the effect of BCP on PCP-induced inhibition of ambulation and rearing
rearing [3, 8]: reversed the effects of BCP on ambulation and rearing behaviors; also recorded: reversed the effect of BCP on PCP-induced inhibition of ambulation and rearing

c1ccc(C2(N3CCCCC3)CCCCC2)cc1 [PCP, Phencyclidine, reference compound]
frequency of entries to the wheel ([4]; PND 91, females and males): reduced the frequency of entries to the wheel
time spent in the Hidden Zone ([4]; PND 91, females and males): increased the time spend at the Hidden Zone
frequency of entries to the hidden zone ([4]; PND 91, males (FIG. 20D)): appeared to reduce the frequency of entries to the Hidden Zone in males
frequency of entries to the hidden zone ([4]; PND 105): increased the frequency of entries to the Hidden Zone
mRNA expression of CB1 receptor (CB1 receptor; brain stem): significant increase
mRNA expression of CB1 receptor (CB1 receptor; left or right cortex): No significant increase
mRNA expression of CB2 receptor (CB2 receptor; brain stem): significant increase
mRNA expression of CB2 receptor (CB2 receptor; left cortex): significant increase
mRNA expression of CB2 receptor (CB2 receptor; right cortex): no difference between control and PCP-treated mice
CB2 receptor expression level (CB2 receptor; following administration of PCP, different brain areas): selectively down-regulated in different brain areas
putative CB2 receptor expression (CB2 receptor; mice neonatally treated with phencyclidine, right cortex and basal ganglia/diencephalon): up-regulation
GAD67 protein level (GAD67; brain stem, Western blotting (FIG. 9C)): non-significant reduction
GAD67 protein level (GAD67; left cortex (FIG. 9A)): significantly decreased
GAD67 protein level (GAD67; right cortex (FIG. 9B)): did not reach a significant level
GAD67 mRNA level (GAD67; brain stem (FIG. 9F)): increased
GAD67 mRNA level (GAD67; left cortex (FIG. 9D)): no change was found at the mRNA level
GAD67 mRNA level (GAD67; right cortex (FIG. 9E)): no change was seen in the mRNA level
protein level of MGL (MGL; Western blotting (FIG. 10C)): reduction in protein level of MGL
mRNA levels of MGL (MGL; left cortex (FIG. 10A)): decreased
time spent in the distal end of the opened arm (anxiety) ([5]; females (FIGS. 6E, 6G)): reduced the time spent in the distal end of the opened arm; also recorded: induced anxiety in female mice
time spent in the distal end of the opened arm (anxiety) ([5]; males (FIGS. 6F, 6H)): increased the time spent in the distal end of the opened arm; also recorded: anxiolytic effect in male mice
body weight ([6]; Study I, ethanol-based vehicle, PND 7 / first week of life (FIG. 1B)): induced a significant reduction in body weight
body weight ([6]; Study I: PCP 5 mg/kg PND 3-16, BCP 10 mg/kg 1 h after PCP, ethanol-based vehicle, each day of injection PND 3-17 (FIG. 1A)): significantly reduce the body weight
body weight ([6]; Study I, PND 17 (FIG. 2C)): still significant
body weight ([6]; Study I, PND 35-37, males (FIG. 4A)): no significant difference in male body weight between the groups
body weight ([6]; Study II: PCP 5 mg/kg, days 3, 5, 7, 10, 12, 15 and 17, male and female (FIG. 13A)): significantly reduced body weight
body weight ([6]; Study II, PND 63 (FIG. 14B)): no significant difference in the body weight between vehicle-treated mice and PCP-treated mice
% inhibition (ability to adjust to sound stimulus, PPI) ([7]; females (FIG. 5D)): No significant difference
% inhibition (ability to adjust to sound stimulus, PPI) ([7]; males (FIG. 5B)): significant reduction in their ability to adjust to sound stimulus
rearing ([3]; Study I, ethanol-based vehicle, PND 17 (FIG. 2B)): significantly inhibited both ambulation and rearing behaviors
ambulation (exploration) ([3]; Study I: PCP 5 mg/kg, BCP 10 mg/kg, ethanol-based vehicle, PND 17 (FIG. 2A)): significantly inhibited both ambulation and rearing behaviors
ambulation ([3]; Study I, PND 17, females): more sensitive to the effect of PCP
rearing behavior ([3]; Study I, PND 17, females): more sensitive to the effect of PCP
locomotor activity ([3]; Study I, PND 17, males): appeared to be less sensitive to the treatment of PCP or PCP+BCP
rearing and exploration behaviors ([3]; Study I, PND 35-37, females (FIGS. 4E, 4F)): no differences in rearing and exploration behaviors were seen between the different groups
locomotor activity ([3]; Study I, PND 35-37, males (FIG. 4C)): significantly increased the locomotor activity compared with vehicle treatment
ambulation ([3]; Study II: PCP 5 mg/kg, PND 16 (FIG. 13B)): significantly inhibited
rearing ([3]; Study II: PCP 5 mg/kg, PND 16 (FIG. 13C)): significantly inhibited
ambulation [3, 8]: significantly inhibited both ambulation and rearing behaviors
rearing [3, 8]: significantly inhibited both ambulation and rearing behaviors
